# Laboratory results reported in US20260151375A1, “CDK2 INHIBITORS AND METHODS OF USING THE SAME” (Cedilla Therapeutics, Inc., priority 2022, published 2026).
# Experiments:
# [1] = tested on: Kuramochi cells; test: IncuCyte Kuramochi Assay (cell proliferation); assay type: cell-based; settings: 72 h, Kuramochi cells labeled with mApple-H2B, cell count, read-out: IncuCyte - Kuramochi RB-WT: IC50
# How it was run: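 GI50 came from dose-response fits of cell-count fold change between 0 and 72 h, normalized to DMSO controls. Counts were fluorescent nuclei from live-cell images over a 10-point, ½ log series starting at 20 μM.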
# [2] = target: T1, CDK2/Cyclin E1 (Homo sapiens, UniProt P24941); test: Caliper Assay (LabChip EZ Reader mobility shift assay), inhibition of CDK2/Cyclin E1 activity; assay type: biochemical; settings: 2.5 nM CDK2/Cyclin E1(14-475), 100 μM ATP, 30 min preincubation; read-out: Caliper Assay (CDK2/CCNE1): IC50
# T1 construct: purchased 14-475
# How it was run: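 Compounds were preincubated 30 min with CDK2/Cyclin E1(14-475), then run for 100 min with 2.5 nM enzyme, 100 μM ATP and 1.5 μM 5-FAM-QSPKKG peptide in HEPES pH 7.5 (final). Reactions were EDTA-stopped and substrate-to-product conversion read by mobility shift. IC50 came from a four-parameter fit.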
IC50 [2] [µM],SMILES,IC50 [1] [µM]
> 10,O=C(c1cc(C(F)(F)F)n[nH]1)N1CC(c2nnc(C(F)(F)c3ccc(Cl)c(Cl)c3)o2)C2(C1)CN(C(=O)[C@H]1CC1(F)F)C2 (stereo partly shown) [I-161],5 to 10
> 10,O=C(c1[nH]ncc1F)N1CC(c2nnc(C(F)(F)c3ccc(Cl)c(Cl)c3)o2)C2(C1)CN(C(=O)[C@H]1CC1(F)F)C2 (stereo partly shown) [I-162],> 10
> 10,O=C(c1[nH]ncc1C(F)(F)F)N1CC(c2nnc(C(F)(F)c3ccc(Cl)c(Cl)c3)o2)C2(C1)CN(C(=O)[C@H]1CC1(F)F)C2 (stereo partly shown) [I-163],> 10
> 10,O=C(c1cncs1)N1CC(c2nnc(C(F)(F)c3ccc(Cl)c(Cl)c3)o2)C2(C1)CN(C(=O)[C@@H]1CCCO1)C2 (stereo partly shown) [I-164],> 10
1 to 10,O=C(c1cnc2ccccc2n1)N1CC(c2nnc(C(F)(F)c3ccc(Cl)c(Cl)c3)o2)C2(C1)CN(C(=O)[C@H]1CC1(F)F)C2 (stereo partly shown) [I-165],> 10
> 10,O=C(c1nccnc1O)N1CC(c2nnc(C(F)(F)c3ccc(Cl)c(Cl)c3)o2)C2(C1)CN(C(=O)[C@H]1CC1(F)F)C2 (stereo partly shown) [I-166],> 10
> 10,"O=C(c1cn[nH]c1C(F)(F)F)N1CC(c2nnc(C(F)(F)c3ccc(Cl)c(Cl)c3)o2)C2(C1)CN(C(=O)[C@H]1CC1(F)F)C2 (stereo partly drawn) [I-167, (8-(5-((3,4-dichlorophenyl)difluoromethyl)-1,3,4-oxadiazol-2-yl)-2-((R)-2,2-difluorocyclopropane-1-carbonyl)-2,6-diazaspiro[3.4]octan-6-yl)(5-(trifluoromethyl)-1H-pyrazol-4-yl)methanone]",> 10
> 10,"O=C(c1cncs1)N1CC(c2nnc(C(F)(F)c3ccc(Cl)c(Cl)c3)o2)C2(C1)CN(C(=O)[C@H]1CCCN1)C2 (stereo partly drawn) [I-169 1st, 2-(2-(D-prolyl)-6-(thiazole-5-carbonyl)-2,6-diazaspiro[3.4]octan-8-yl)-5-((3,4-dichlorophenyl)difluoromethyl)-1,3,4-oxadiazole]",5 to 10
> 10,O=C(c1cncs1)N1CC(c2nnc(C(F)(F)c3ccc(Cl)c(Cl)c3)o2)C2(C1)CN(C(=O)[C@@H]1CCCN1)C2 (stereo partly shown) [I-169 2nd],> 10
> 10,"CC(C)(C(=O)N1CC2(C1)CN(c1ncnc3ncsc13)CC2c1nnc(C(F)(F)c2ccc(Cl)c(Cl)c2)o1)C(F)F (stereo not shown) [I-170, 1-(8-(5-((3,4-dichlorophenyl)difluoromethyl)-1,3,4-oxadiazol-2-yl)-6-(thiazolo[4,5-d]pyrimidin-7-yl)-2,6-diazaspiro[3.4]octan-2-yl)-3,3-difluoro-2,2-dimethylpropan-1-one]",> 10
> 10,O=C([C@H]1CC1(F)F)N1CC(c2nnc(C(F)(F)c3ccc(Cl)c(Cl)c3)o2)C2(C1)CN(C(=O)[C@H]1CC1(F)F)C2 (stereo partly shown) [I-171],> 10
> 10,O=C(c1cncs1)N1CC(c2nnc(C(F)(F)c3ccc(Cl)c(Cl)c3)o2)C2(C1)CN(C(=O)C1CNC1)C2 (stereo not shown) [I-173],> 10
1 to 10,"CC1(C(=O)N2CC3(C2)CN(c2ncnc4ncsc24)CC3c2nnc(C(F)(F)c3ccc(Cl)c(Cl)c3)o2)CC1(F)F (stereo not shown) [I-174, (8-(5-((3,4-dichlorophenyl)difluoromethyl)-1,3,4-oxadiazol-2-yl)-6-(thiazolo[4,5-d]pyrimidin-7-yl)-2,6-diazaspiro[3.4]octan-2-yl)(2,2-difluoro-1-methylcyclopropyl)methanone]",> 10
> 10,CC(C)(C#N)C(=O)N1CC2(CN(C(=O)c3cnccn3)CC2c2nnc(C(F)(F)c3ccc(Cl)c(Cl)c3)o2)C1 (stereo not shown) [I-175],> 10
1 to 10,"O=C(c1cnccn1)N1CC(c2nnc(C(F)(F)c3ccc(Cl)c(Cl)c3)o2)C2(C1)CN(C(=O)[C@H]1CC1(F)F)C2 (stereo partly drawn) [I-176, (8-(5-((3,4-dichlorophenyl)difluoromethyl)-1,3,4-oxadiazol-2-yl)-2-((R)-2,2-difluorocyclopropane-1-carbonyl)-2,6-diazaspiro[3.4]octan-6-yl)(pyrazin-2-yl)methanone]",> 10
> 10,CC(C)(C#N)C(=O)N1CC2(CN(C(=O)c3cn[nH]c3)CC2c2nnc(C(F)(F)c3ccc(Cl)c(Cl)c3)o2)C1 (stereo not shown) [I-177],> 10
> 10,CC(C)(O)C(=O)N1CC2(CN(C(=O)c3cncs3)CC2c2nnc(C(F)(F)c3ccc(Cl)c(Cl)c3)o2)C1 (stereo not shown) [I-178],> 10
> 10,"CC1(C)OC1C(=O)N1CC2(CN(C(=O)c3cncs3)CC2c2nnc(C(F)(F)c3ccc(Cl)c(Cl)c3)o2)C1 (stereo not shown) [I-179, (8-(5-((3,4-dichlorophenyl)difluoromethyl)-1,3,4-oxadiazol-2-yl)-2-(3,3-dimethyloxirane-2-carbonyl)-2,6-diazaspiro[3.4]octan-6-yl)(thiazol-5-yl)methanone]",5 to 10

IC50 [2] [µM],SMILES,IC50 [1] [µM]
> 10,O=C(c1cncs1)N1CC(c2nnc(C(F)(F)c3ccc(Cl)c(Cl)c3)o2)C2(CC(C(=O)N3CCC3)C2)C1 (stereo not shown) [I-180],> 10
> 10,"O=C(N1CC2(C1)CN(c1ncnc3ncsc13)CC2c1nnc(C(F)(F)c2ccc(Cl)c(Cl)c2)o1)C1(C(F)(F)F)CC1 (stereo not shown) [I-181, (8-(5-((3,4-dichlorophenyl)difluoromethyl)-1,3,4-oxadiazol-2-yl)-6-(thiazolo[4,5-d]pyrimidin-7-yl)-2,6-diazaspiro[3.4]octan-2-yl)(1-(trifluoromethyl)cyclopropyl)methanone]",> 10
> 10,"O=C(c1cncs1)N1CC(c2nnc(C(F)(F)c3ccc(Cl)c(Cl)c3)o2)C2(CN(CC3CCCO3)C2)C1 (stereo not shown) [I-182, (8-(5-((3,4-dichlorophenyl)difluoromethyl)-1,3,4-oxadiazol-2-yl)-2-((tetrahydrofuran-2-yl)methyl)-2,6-diazaspiro[3.4]octan-6-yl)(thiazol-5-yl)methanone]",> 10
> 10,"FC(F)(c1ccc(Cl)c(Cl)c1)c1nnc(C2CN(c3ncnc4ncsc34)CC23CN(c2ncccn2)C3)o1 (stereo not shown) [I-183, 2-((3,4-dichlorophenyl)difluoromethyl)-5-(2-(pyrimidin-2-yl)-6-(thiazolo[4,5-d]pyrimidin-7-yl)-2,6-diazaspiro[3.4]octan-8-yl)-1,3,4-oxadiazole]",> 10
> 10,O=C(c1cncs1)N1CC(c2nnc(C(F)(F)c3ccc(Cl)c(Cl)c3)o2)C2(C1)CN(c1ccccn1)C2 (stereo not shown) [I-184],> 10
> 10,CC1(C)C[C@@H]1C(=O)N1CC2(CN(C(=O)c3cnc(C#N)s3)CC2c2nnc(C(F)(F)c3ccc(Cl)c(Cl)c3)o2)C1 (stereo partly shown) [I-185],5 to 10
> 10,"O=C(c1cncs1)N1CC(c2nnc(C(F)(F)c3ccc(Cl)c(Cl)c3)o2)C2(C1)CN(C(=O)N1CCC1)C2 (stereo not shown) [I-186, Azetidin-1-yl(8-(5-((3,4-dichlorophenyl)difluoromethyl)-1,3,4-oxadiazol-2-yl)-6-(thiazole-5-carbonyl)-2,6-diazaspiro[3.4]octan-2-yl)methanone]",> 10
> 10,"O=C(c1cncs1)N1CC(c2nnc(C(F)(F)c3ccc(Cl)c(Cl)c3)o2)C2(C1)CN(c1cccnn1)C2 (stereo not shown) [I-187, (8-(5-((3,4-dichlorophenyl)difluoromethyl)-1,3,4-oxadiazol-2-yl)-2-(pyridazin-3-yl)-2,6-diazaspiro[3.4]octan-6-yl)(thiazol-5-yl)methanone]",> 10
1 to 10,CC(C)(CO)C(=O)N1CC2(CN(C(=O)c3cncs3)CC2c2nnc(C(F)(F)c3ccc(Cl)c(Cl)c3)o2)C1 (stereo not shown) [I-189],> 10
> 10,CC(C)=CC(=O)N1CC2(C1)CN(C(=O)c1cncs1)CC2c1nnc(C(F)(F)c2ccc(Cl)c(Cl)c2)o1 (stereo not shown) [I-190],> 10
1 to 10,"O=C(c1cn[nH]c1)N1CC(c2nnc(C(F)(F)c3ccc(Cl)c(Cl)c3)o2)C2(C1)CN(C(=O)[C@H]1CC1(F)F)C2 (stereo partly drawn) [I-191, (8-(5-((3,4-dichlorophenyl)difluoromethyl)-1,3,4-oxadiazol-2-yl)-2-((R)-2,2-difluorocyclopropane-1-carbonyl)-2,6-diazaspiro[3.4]octan-6-yl)(1H-pyrazol-4-yl)methanone]",> 10
1 to 10,"CC1(C)C[C@@H]1C(=O)N1CC2(C1)CN(c1ncnc3ncsc13)CC2c1nnc(C(F)(F)c2ccc(Cl)c(Cl)c2)o1 (stereo partly drawn) [I-192, (8-(5-((3,4-dichlorophenyl)difluoromethyl)-1,3,4-oxadiazol-2-yl)-6-(thiazolo[4,5-d]pyrimidin-7-yl)-2,6-diazaspiro[3.4]octan-2-yl)((S)-2,2-dimethylcyclopropyl)methanone]",5 to 10
1 to 10,CC1(C)C[C@@H]1C(=O)N1CC2(CN(C(=O)c3cncs3)CC2c2cn(Cc3ccc(C4CC4)cc3)nn2)C1 (stereo partly shown) [I-193],> 10
0.1 to 1,CC1(C)C[C@@H]1C(=O)N1CC2(CN(C(=O)c3cncs3)CC2c2cn(Cc3ccc(C4(C(F)(F)F)CC4)cc3)nn2)C1 (stereo partly shown) [I-194],> 10
1 to 10,CC1(C)C[C@@H]1C(=O)N1CC2(CN(C(=O)c3cncs3)CC2c2cn(Cc3cccc(C(F)(F)F)c3)nn2)C1 (stereo partly shown) [I-195],> 10
> 10,CC(=O)N1CC2(C1)CN(C(=O)c1cncs1)CC2c1nnc(C(F)(F)c2ccc(Cl)c(Cl)c2)o1 (stereo not shown) [I-196],> 10
> 10,"O=C(c1cncs1)N1CC(c2nnc(Cc3ccc(Cl)c(Cl)c3)o2)C2(C1)CN(c1ccccn1)C2 (stereo not shown) [I-197, (8-(5-(3,4-dichlorobenzyl)-1,3,4-oxadiazol-2-yl)-2-(pyridin-2-yl)-2,6-diazaspiro[3.4]octan-6-yl)(thiazol-5-yl)methanone]",> 10
